According to patent US7534809B2, “Phospho-indoles as HIV inhibitors” (priority 2004, dated 2009):
Where two headings read alike, the source gives them in different places.

What was measured:
HIV BH-10 WT = assay: Cell-based assay using BH-10 cells, wild type
[1] = tested on: HIV mutant strain K103N/Y181C; assay: Cell-based assay using BH-10 cells, K103N/Y181C mutant
Method: (§1) In a typical embodiment, the NNRTIs display an EC50 in a mutant HIV strain of less than approximately 5, 2.5, 1 or 0.1 μM concentration. The degree of cross-resistance against a drug resistant strain of HIV is measured by assessing the EC50 of the desired oxo-pyrimidine compound in the target mutated, i.e., drug resistant, virus.
(§2) The degree of cross-resistance against a drug resistant strain of HIV can easily be measured by assessing the EC50 of the desired indole in the target mutated i.e., drug resistant, virus.

HIV mutant strain Y181C = assay: Cell-based assay using BH-10 cells, Y181C mutant
Method: as §1, §2

[2] = Human immunodeficiency virus 1, read-out: EC50 WT///B, BH-10 cells, wild type
[3] = Human immunodeficiency virus 1, read-out: EC50 K103N/Y181C, BH-10 cells, K103N/Y181C mutant
[4] = Human immunodeficiency virus 1, read-out: EC50 Y181C, BH-10 cells, Y181C mutant
[5] = BH-10 cells, wild type, read-out: EC50 WT///B
[6] = BH-10 cells, K103N/Y181C mutant, read-out: EC50 K103N/Y181C
[7] = BH-10 cells, Y181C mutant, read-out: EC50 Y181C

Compound | EC50 (HIV BH-10 WT; [2]) [nM] | EC50 [1, 3] [nM] | EC50 (HIV mutant strain Y181C; [4]) [nM] | EC50 (HIV BH-10 WT; [5]) [nM] | EC50 [1, 6] [nM] | EC50 (HIV mutant strain Y181C; [7]) [nM]
COP(=O)(c1cc(F)cc(F)c1)c1c(C(=O)NCCC#N)[nH]c2ccc(Cl)cc12 (stereo not drawn) [Compound 59b] | 3.5 | 21.5 | 69.3 | – | – | –
COP(=O)(CC=C(C)C)c1c(C(N)=O)[nH]c2ccc(Cl)cc12 (stereo not drawn) [Compound 57b] | 0.8 | 174 | 13.1 | – | – | –
COP(=O)(c1cccc(Cl)c1)c1c(C(N)=O)[nH]c2ccc(Cl)cc12 (stereo not drawn) [Compound 7c] | 0.4 | 2.6 | 8.7 | – | – | –
CCCc1cccc(P(=O)(OC)c2c(C(N)=O)[nH]c3ccc(Cl)cc23)c1 (stereo not drawn) [Compound 7x] | 3 | 8.7 | 13.8 | – | – | –
COP(=O)(c1cc(C)cc(C)c1)c1c(C(=O)NCc2ccc[n+]([O-])c2)[nH]c2ccc(Cl)c(F)c12 (stereo not drawn) [Compound 22j] | – | – | – | 6.8 | 6 | 9.9
COP(=O)(c1cc(C)cc(C)c1)c1c(C(=O)NCc2ccccc2F)[nH]c2ccc(Cl)cc12 (stereo not drawn) [Compound 18az] | 3 | 8.5 | 16.7 | – | – | –
CCc1cccc(P(=O)(OC)c2c(C(=O)NCc3ccncc3)[nH]c3ccc(Cl)cc23)c1 (stereo not drawn) [Compound 18ap] | 5.8 | 5.8 | 3.7 | – | – | –
COP(=O)(c1cc(C)cc(C)c1)c1c(C(=O)NCc2c(F)ccc(F)c2F)[nH]c2ccc(Cl)cc12 (stereo not drawn) [CONHCH2(Ph: 2,3,6-tri-F)] | – | – | – | 17.9 | 22.8 | 17.1
COP(=O)(c1cc(F)cc(Cl)c1)c1c(C(N)=O)[nH]c2ccc(Cl)cc12 (stereo not drawn) [Compound 7v] | 0.8 | 2.3 | 14.9 | – | – | –
COP(=O)(c1cc(C)cc(C)c1)c1c(C(=O)NCc2cccc[n+]2[O-])[nH]c2ccc(Cl)cc12 (stereo not drawn) [Compound 22p] | 1.9 | 17.9 | 51.3 | – | – | –
COP(=O)(c1cc(F)cc(F)c1)c1c(C(=O)NCc2ccncc2)[nH]c2ccc(Cl)cc12 (stereo not drawn) [Compound 18e] | 3.5 | 12 | 14.8 | – | – | –
COP(=O)(c1cc(F)cc(C#N)c1)c1c(C(N)=O)[nH]c2ccc(Cl)cc12 (stereo not drawn) [Compound 7at] | – | – | – | 5.7 | 10.3 | 22.1
COP(=O)(c1cc(C)cc(C)c1)c1c(C(=O)NCc2cc[n+]([O-])cc2)[nH]c2ccc(Cl)cc12 (stereo not drawn) [Compound 22n] | 2 | 4.5 | 8.8 | – | – | –
COP(=O)(c1cc(Cl)cc(Cl)c1)c1c(C(N)=O)[nH]c2ccc(Cl)cc12 (stereo not drawn) [Compound 7b] | 1.2 | 16.8 | 5.3 | – | – | –
COP(=O)(c1cc(C(F)(F)F)cc(C(F)(F)F)c1)c1c(C(N)=O)[nH]c2ccc(Cl)cc12 (stereo not drawn) [Compound 7s] | 12.8 | 47.9 | 68.3 | – | – | –
COP(=O)(c1cccs1)c1c(C(N)=O)[nH]c2ccc(Cl)cc12 (stereo not drawn) [Compound 52b] | 0.5 | 2.5 | 8.7 | – | – | –
COP(=O)(c1cccc(C(C)C)c1)c1c(C(N)=O)[nH]c2ccc(Cl)cc12 (stereo not drawn) [Compound 7g] | 2.5 | 7.7 | 8.8 | – | – | –
CCOP(=O)(c1ccccc1Cl)c1c(C(N)=O)[nH]c2ccc(Cl)cc12 (stereo not drawn) [Compound 6ai] | 1.2 | 17.3 | 146 | – | – | –
COP(=O)(c1cc(C)cc(C)c1)c1c(C(=O)NCc2ccncc2F)[nH]c2ccc(Cl)cc12 (stereo not drawn) [Compound 18h] | 1.7 | 4.3 | 14.3 | – | – | –
COP(=O)(c1cc(C)cc(C#N)c1)c1c(C(=O)NCc2ccncc2)[nH]c2ccc(Cl)cc12 (stereo not drawn) [Compound 18aaf] | 1.8 | 1.1 | 3.9 | – | – | –
COP(=O)(c1cc(C)cc(C)c1)c1c(C(=O)NCc2ccccc2C(F)(F)F)[nH]c2ccc(Cl)cc12 (stereo not drawn) [Compound 18aal] | 30.1 | 21.8 | 19.7 | – | – | –
COP(=O)(c1cc(C)cc(C#N)c1)c1c(C(=O)NCc2cncn2C)[nH]c2ccc(Cl)cc12 (stereo not drawn) [Compound 18aag] | 3.1 | 2.9 | 18.8 | – | – | –
COP(=O)(c1cccc(C)c1)c1c(C(=O)NCc2ccco2)[nH]c2ccc(Cl)cc12 (stereo not drawn) [Compound 18b] | 3.6 | 4 | 10.1 | – | – | –
COP(=O)(c1cc(C)cc(F)c1)c1c(C(=O)NCc2ccncc2)[nH]c2ccc(Cl)cc12 (stereo not drawn) [Compound 18d] | 2.3 | 3.7 | 9.4 | – | – | –
CCc1cc(C)cc(P(=O)(OC)c2c(C(N)=O)[nH]c3ccc(Cl)cc23)c1 (stereo not drawn) [Compound 7w] | 0.4 | 1.2 | 5.5 | – | – | –
COP(=O)(c1cc(C)cc(C)c1)c1c(C(N)=O)[nH]c2ccc(Cl)c(F)c12 (stereo not drawn) [Compound 7z] | 2.1 | 2.2 | 8.5 | – | – | –
